Data from paper doi:10.1101/2021.07.20.453049v1, “Integration of the cyanophage-encoded phosphate binding protein into the cyanobacterial phosphate uptake system” (biorxiv, 2021).

How the values were obtained:
[1] = molecular target: T1, Syn19 PstS (group II cyanophage PstS) (Synechococcus phage Syn19, UniProt E3SQC4); assay type: binding; conditions: crystallised with 5 mM sodium phosphate, pH 7.5; 18% PEG 3350, 0.2 M sodium formate
T1 construct: recombinant, E. coli BL21(DE3), pET-22b, C-terminal His6 tag
T1 sequence (E3SQC4 19-326): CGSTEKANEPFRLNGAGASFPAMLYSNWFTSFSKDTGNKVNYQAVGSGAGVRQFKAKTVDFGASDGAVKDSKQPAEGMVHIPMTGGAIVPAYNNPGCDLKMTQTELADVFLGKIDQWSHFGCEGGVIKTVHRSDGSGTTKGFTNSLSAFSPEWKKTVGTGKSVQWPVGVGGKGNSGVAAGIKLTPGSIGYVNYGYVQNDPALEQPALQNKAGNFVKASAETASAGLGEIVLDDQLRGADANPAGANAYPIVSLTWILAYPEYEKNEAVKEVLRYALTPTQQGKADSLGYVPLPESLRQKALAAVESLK

[2] = molecular target: T2, host PstS (Prochlorococcus NATL2A PstS) (Prochlorococcus marinus, UniProt Q46KP5); conditions: 20 mM Tris-HCl, 200 mM NaCl, pH 7.5, room temperature, 24 h; trace 32P tracer with cold NaH2PO4
T2 construct: gene PMN2A_0441
T2 sequence (Q46KP5 25-323): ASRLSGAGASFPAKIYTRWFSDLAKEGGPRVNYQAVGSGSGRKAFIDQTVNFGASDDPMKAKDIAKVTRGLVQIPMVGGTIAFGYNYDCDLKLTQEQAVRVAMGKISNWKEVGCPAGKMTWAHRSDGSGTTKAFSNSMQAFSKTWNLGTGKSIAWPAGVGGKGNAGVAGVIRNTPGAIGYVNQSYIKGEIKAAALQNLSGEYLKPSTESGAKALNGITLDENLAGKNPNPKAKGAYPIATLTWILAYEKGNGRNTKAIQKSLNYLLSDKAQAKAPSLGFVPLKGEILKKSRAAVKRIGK

[3] = molecular target: phage PstS (cyanophage P-SSM2 PstS) (Prochlorococcus phage P-SSM2, UniProt Q58MA7); experiment: biochemical
phage PstS (cyanophage P-SSM2 PstS), sequence (Q58MA7 21-321): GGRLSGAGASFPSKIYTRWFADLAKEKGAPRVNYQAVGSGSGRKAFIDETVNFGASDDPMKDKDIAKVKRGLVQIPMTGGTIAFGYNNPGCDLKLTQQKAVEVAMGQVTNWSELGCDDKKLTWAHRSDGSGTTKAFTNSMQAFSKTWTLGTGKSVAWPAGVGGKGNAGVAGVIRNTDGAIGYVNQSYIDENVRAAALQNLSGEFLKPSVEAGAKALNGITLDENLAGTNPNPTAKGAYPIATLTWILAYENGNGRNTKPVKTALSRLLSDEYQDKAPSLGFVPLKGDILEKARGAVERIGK

Q: Which results are given for O=P(O)(O)O [phosphate]?
A: X-ray crystal structure, 1.70 Å [1]: The PstS structure of cyanophage Syn19 in complex with PO4.; Kd [2]: 0.82 ± 0.44 µM; Kd [3]: 1.39 ± 0.22 µM
